# Test results from patent US9944991B2, “Compositions and methods for diagnosis, prognosis and treatment of hematological malignancies” (Dana-Farber Cancer Institute, Inc., priority 2012, dated 2018).
# Entries after “also recorded” stand apart in the source; their conditions may differ.
# Columns and labels:
# BCWM1 cells [1] = assay: [H]3 thymidine uptake cell proliferation assay; format: cell-based, human; conditions: 20 μM, 48 hours, vs scramble control
# Method: (§1) To assess the uptake of antimiR-155 into BCWM1 or MEC1 cells, a 5′ FAM-labeled antimiR-155 was used and the antimiR was added directly to the cell suspension without any transfection reagent. The uptake of FAM-labeled antimiR-155 into BCWM1 cells was higher than 90% as judged by flow cytometry (data not shown), which indicates efficient delivery of the 8-mer antimiR into tumor cells. To further examine the functional effect of antimiR-155 on BCWM1 or MEC1, cell survival and cell proliferation was measured by MTT and [H]^3 thymidine uptake assays, respectively. […] Thus, miR-155 inhibition regulates cell proliferation, but not cell apoptosis.
# MEC1 cells [2] = assay: [H]3 thymidine uptake cell proliferation assay; format: cell-based, human; conditions: 20 μM, 48 hours, vs scramble control
# Method: as §1
# BCWM1 cells [3] = assay: MTT cell survival / cytotoxicity assay; format: cell-based, human; conditions: 20 μM, 48 hours, vs scramble control
# Method: as §1
# MEC1 cells [4] = assay: MTT cell survival / cytotoxicity assay; format: cell-based, human; conditions: 20 μM, 48 hours, vs scramble control
# Method: as §1
# miR-155 [5] = assay: Gene expression profiling and qRT-PCR of miR-155 target mRNAs in BCWM1 cells; format: cell-based, human; conditions: vs scramble control
# Method: Total RNA from BCWM1 cells treated with antimiR-155 or LNA scramble control oligonucleotide, respectively, for 48 hours, were isolated using RNeasy kit (Qiagen) as described by the manufacturer, and hybridized on an Affymetrix U133A 2.0 array chip (Affymetrix, Santa Clara, Calif.). GEP data were analyzed using dChip software (biosunl.harvard.edu/complab/dchip/). Candidate target mRNAs for miR-155 were identified by using the algorithms TargetScan (genes.mit.edu/targetscan/), PicTar (pictar.bio.nyu.edu/) and RNAhybrid (bibiserv.techfak.uni-bielefeld.de/rnahybrid/).
# (§2) Total RNA of cells was isolated with the RNeasy kit (Qiagen). cDNA was synthesized using the SuperScript cDNA synthesis kit (Invitrogen) and qRT-PCR reactions were performed using SYBR master mix (SA Bioscience) with designated primers relative to 18S expression by StepOnePlus™ Real-Time PCR System (Applied Biosystem) in triplicates. TaqMan® microRNA Assays kits (Applied Biosystem) were used for quantifying hsa-miR-155 levels relative to RNU6B expression.
# To identify new direct miR-155 targets in B cell lymphomas, gene expression profiling (GEP) was performed on BCWM.1 cells after treatment with antimiR-155 or scramble control for 24 or 48 hours. […]
# miR-155 [6] = assay: qRT-PCR of miR-155 target genes in primary WM CD19+ cells; format: cell-based, human; conditions: 20 μM, 48 hours, vs scramble control
# Method: as §2
# (§3) The mRNA levels of the six miR-155 target genes, SMAD5, SOCS1, CEBPβ, MAFB, SHANK2 and SH3PXD2A, […] were next determined by qRT-PCR from primary WM CD19^+ cells, and primary CLL cells, normal donor blood CD19^+ cells, BCWM1 and MEC1 cells.
# miR-155 [7] = assay: qRT-PCR of miR-155 target genes in primary CLL cells; format: cell-based, human; conditions: 20 μM, 48 hours, vs scramble control
# Method: as §2, §3
# mCherry-Luc+-BCWM1 cells = assay: Xenograft mouse model of WM, bioluminescent imaging of tumor burden; format: in vivo, SCID mice
# Method: (§4) Immediately after tail vein injection of mCherry-Luc+-BCWM1 cells (3×10^6/mouse) in SCID mice, the mice (6 mice/group) were treated with a single intravenous tail vein injection of 25 mg/kg with either antimiR-155 or LNA scramble control, followed by weekly maintenance doses of 5 mg/kg antimiR-155 or LNA scramble control until the mice were sacrificed. Mice were injected with 75 mg/kg luciferin (Caliper Life Sciences, Hopkinton, Mass.), followed by whole-body real-time bioluminescence imaging (Xenogen IVIS imaging system, Caliper Life Sciences, Hopkinton, Mass.) performed at Day 0, Day 14, and Day 19. Mice were sacrificed by inhalation of CO2. RNA was extracted from CD19+ cells isolated from one mouse femur by using CD19+ microbead selection. The other femur, liver, and spleen were fixed in formaldehyde.
# To assess the anti-tumor activity of antimiR-155 in vivo, a xenograft mouse model of WM was used. Six SCID mice per group were engrafted with 3×10^6 mCherry-Luc^+-BCWM1 cells, after which mice were injected with a loading dose of 25 mg/kg antimiR-155 or scramble control, which was followed by weekly maintenance doses of 5 mg/kg of each respective compound until the mice were sacrificed. Tumor burden was monitored using bioluminescent imaging (BLI) at Days 0, 14, and 19 after injection (FIG. 7A).
# miR-155 [8] = assay: miR-155 target de-repression in xenograft mice (qRT-PCR of bone marrow CD19+ cells, immunostaining); format: in vivo, SCID mice
# Method: as §4
# Moreover, immunostaining confirmed de-repression of the MAFB and CEBPβ targets at the protein level in the bone marrow and spleen upon treatment with the antimiR-155 (FIG. 7D).
# BCWM1 cells [9] = assay: Co-culture with primary WM bone marrow stromal cells, proliferation; format: cell-based, human; conditions: 20 μM, 48 hours
# Method: (§5) To examine the effect of antimiR-155 on tumor progression in the context of the microenvironment, the miR-155 levels were first quantified in bone marrow stromal cells (mesenchymal stem cells) from WM patients in comparison to normal healthy donors. […] Consequently, 20 μM antimiR-155 or scramble control was added to a co-culture of BCWM1 and primary WM bone marrow stromal cells or MEC1 cells and primary WM bone marrow stromal cells, and then assessed for cell proliferation by MTT and [H]^3 thymidine uptake assays, respectively, after 48-hours. […] No effect on cell cytotoxicity on stromal cells was observed.
# MEC1 cells [10] = assay: as above; format: cell-based, human; conditions: 20 μM, 48 hours
# Method: as §5
# [11] = system: primary WM bone marrow stromal cells; assay: Cytotoxicity on stromal cells in co-culture; format: cell-based, human; conditions: 20 μM, 48 hours
# Method: as §5
# BCWM1 cells [12] = assay: Co-culture with stromal cells from wild-type or miR-155−/− mice, [H]3 thymidine uptake; format: cell-based, human; conditions: 20 μM, 48 hours, vs scramble control
# Method: (§6) To further clarify whether antimiR-155 can affect both tumor cells and stromal cells, BCWM1 or MEC1 cells were treated with antimiR-155 or scramble control, followed by co-culturing of the treated cells with bone marrow stromal cells from wild-type mice in comparison with stromal cells from miR-155^−/− mice. Cell survival and cell proliferation were assessed by MTT assay and [H]^3 thymidine uptake assays, respectively, after 48-hour of co-culture.
# MEC1 cells [13] = assay: as above; format: cell-based, human; conditions: 20 μM, 48 hours, vs scramble control
# Method: as §6
# NF-κB p65 = NF-κB p65 DNA-binding activity (Active Motif TransAM) in nuclear extracts; format: cell-based, human; conditions: BCWM.1 and MWCL.1; everolimus 1 nM or bortezomib 5 nM, 4 hours; TNF-α 10 ng/mL
# Source text: NF-κB activity was investigated using the Active Motif TransAM kits, a DNA-binding enzyme-linked immunosorbent assay (ELISA)-based assay (Active Motif North America, Carlsbad, Calif.).
compound,measurement,setting,value
"antimiR-155: fully LNA-modified 8-mer seed-targeting antimiR-155 (3′ATTACGAT 5′ (SEQ ID NO:9)) (fully LNA-modified, chemistry not fully specified; listed 3' to 5')",cell proliferation,BCWM1 cells [1],significant reduction in cell proliferation
same,cell proliferation,MEC1 cells [2],significant reduction in cell proliferation
same,cell cytotoxicity,BCWM1 cells [3],no change in cell cytotoxicity
same,cell cytotoxicity,MEC1 cells [4],no change in cell cytotoxicity
same,"validated miR-155 target mRNAs (CEBPβ, SMAD5, SOCS1)",miR-155 [5]; 24 or 48 hours,up-regulated; also recorded: upregulated
same,"new miR-155 targets MAFB, SHANK2, SH3PXD2A mRNA",miR-155 [5]; 48 hours,de-repressed; also recorded: upregulated
same,mRNA levels of the six miR-155 targets,miR-155 [6],significant increase in the mRNA levels
same,mRNA levels of the six miR-155 targets,miR-155 [7],significant increase in the mRNA levels
same,tumor burden (BLI),"mCherry-Luc+-BCWM1 cells; 25 mg/kg loading dose, weekly 5 mg/kg, Day 14 and Day 19, vs scramble control",significant reduction in tumor burden; also recorded: significantly decreased tumor burden
same,body weight,mCherry-Luc+-BCWM1 cells; antimiR-155 vs scramble control group,No difference in body weight
same,CEBPβ protein level in bone marrow and spleen (immunostaining),"miR-155 [8]; mouse, in vivo",de-repression
same,MAFB protein level in bone marrow and spleen (immunostaining),"miR-155 [8]; mouse, in vivo",de-repression
same,mRNA levels of six miR-155 targets in bone marrow WM CD19+ cells,miR-155 [8]; vs scramble control,de-repressed
same,protective effect of bone marrow stromal cells on WM tumor cells,BCWM1 cells [9],overcame the protective effect of bone marrow stromal cells
same,tumor cell proliferation in co-culture,BCWM1 cells [9]; primary WM bone marrow stromal cells,decreased tumor cell proliferation
same,tumor cell proliferation in co-culture,MEC1 cells [10],decreased tumor cell proliferation
same,cell cytotoxicity on stromal cells,[11],No effect
same,"tumor cell proliferation, co-culture with miR-155−/− stromal cells",BCWM1 cells [12],not significantly
same,"tumor cell proliferation, co-culture with wild-type mice stroma",BCWM1 cells [12],decreased tumor cell proliferation
same,"tumor cell proliferation, co-culture with miR-155−/− stromal cells",MEC1 cells [13],not significantly
same,"tumor cell proliferation, co-culture with wild-type mice stroma",MEC1 cells [13],decreased tumor cell proliferation
CC(C)C[C@H](NC(=O)[C@H](Cc1ccccc1)NC(=O)c1cnccn1)B(O)O [bortezomib],"TNF-α-induced NF-κB recruitment to the nucleus, single agents",NF-κB p65,similarly inhibited
